Where two headings read alike, the source gives them in different places.
Tests used:
[1] = target: T1, Human Prostatic Steroid 5α-Reductase (Homo sapiens, UniProt P31213); experiment: Inhibition of human steroid 5α-reductase using tissue from hyperplastic human prostates ([14C]-testosterone conversion, Dixon analysis); type: biochemical
T1 construct: Prostatic particles were obtained by differential centrifugation; from tissue; host or cells: frozen human prostates (hyperplastic), 140,000 × g particulate fraction
T1 sequence (P31213 1-254): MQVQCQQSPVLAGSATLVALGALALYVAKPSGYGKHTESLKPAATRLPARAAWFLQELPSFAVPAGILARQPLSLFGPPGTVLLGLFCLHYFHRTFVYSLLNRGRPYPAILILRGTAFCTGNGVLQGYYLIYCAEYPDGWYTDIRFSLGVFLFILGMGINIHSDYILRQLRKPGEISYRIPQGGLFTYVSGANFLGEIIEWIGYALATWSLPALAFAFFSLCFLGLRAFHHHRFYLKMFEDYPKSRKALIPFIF
Protocol: Such diseases and conditions include acne vulgaris, seborrhea, female hirsutism, prostate diseases such as benign prostatic hypertrophy, and male pattern baldness. several compounds of the invention were tested for potency in inhibiting human steroid 5α-reductase using tissue from hyperplastic human prostates. In determining potency in inhibiting the human enzyme, the following procedure was employed:
Frozen human prostates were thawed and minced into small pieces (5 mm^3). The tissue was homogenized in 3 to 5 volumes of 20 mM potassium phosphate, pH 6.5, buffer containing 0.33 M sucrose, 1 mM dithiothreitol, and 50 μM NADPH with a Brinkmann Polytron (Sybron Corporation, Westbury, N.Y.). The solution was subjected to sonication for 3 to 5 minutes with a Sonifier (Branson Sonic Power Co.) followed by hand homogenization in a glass-to-glass Dounce homogenizer (Kontes Glass Company, Vineland, N.J.).
Prostatic particles were obtained by differential centrifugation at 600 to 1000 × g for 20 minutes and 140,000 × g for 60 minutes at 4° C. The pellet obtained from the 140,000 × g centrifugation was washed with 5 to 10 tissue volumes of the buffer described above and recentrifuged at 140,000 × g. The resulting pellet was suspended in 20 mM potassium phosphate buffer, pH 6 5, containing 20% glycerol, 1 mM dithiothreitol, and 50 μM NADPH. The suspended particulate solution was stored at -80° C.
A constant amount of [^14 C]-testosterone (52 to 55 mCi/mmol, New England Nuclear, Boston, Mass.) in ethanol and varying amounts of the potential inhibitor in ethanol were deposited in test tubes and concentrated to dryness in a SAVANT Speed Vac. To each tube was added buffer, 20 μl of 10 mM NADPH and an aliquot of prostatic particulate solution to a final volume of 1.0 ml of 50 mM sodium citrate, pH 5.0. After incubating the solution at 37° C. for 20 to 30 minutes the reaction was quenched by the addition of 4 ml ethyl acetate and 0.25 μmol each of testosterone, dihydrotestosterone, androst-aneidiol, and androst-anedione as carriers. The organic layer was removed to a second test tube and evaporated to dryness in a Speed Vac. The residue was dissolved in 20 to 30 μl chloroform, spotted on an individual lane of a 20×20 cm prechannelled silica gel TLC plate (Si 250F-PA, Baker Chemical) and developed twice with acetone:chloroform (1:9). The radiochemical content in the bands of the substrate and the products was determined with a BIOSCAN Imaging Scanner (Bioscan, Inc., Washington, D.C.). The percent of recovered radiolabel converted to product was calculated, from which enzyme activity was determined. All incubations were conducted such that no more than 12% of the substrate (testosterone) was consumed.
The experimentally obtained data was computer fitted to a linear function by plotting the reciprocal of the enzyme activity (1/velocity) against the variable inhibitor concentration (Dixon, M. (1953), Biochem. J., 55, 170). Assuming that the steroidal inhibitor is a competitive inhibitor against testosterone, a value for the inhibition constant (Ki) can be calculated from equation 1:
Ki =(B/A)/(S/Km +1) Equation 1

steroid 5α-reductase = conditions: cited from earlier work; for Reversible / Irreversible inhibition: Table 1, in words beside Ki; for Ki: Table 1, literature references
[2] = system: human steroid 5α-reductase; conditions: read-out: Km (Michaelis-Menton constant of the substrate); testosterone as substrate
Source text: where B is the intercept on the 1/velocity axis, A is the slope of the line, S is the concentration of substrate (testosterone) used in the experiment, and Km is the Michaelis-Menton constant of the substrate (testosterone)

[3] = human prostatic particulate, pH 5.0, 37° C., 20 to 30 minutes, competitive inhibition against testosterone assumed, read-out: Ki , app

CC(C)N(C(=O)[C@H]1CC[C@H]2[C@@H]3CC[C@H]4CC([PH](=O)O)=CC[C@]4(C)[C@H]3CC[C@]12C)C(C)C [Example 3, 17β-N,N-Diisopropylcarboxamide-5α-androst-2-ene-3-phosphinic Acid]
Ki [1]: 15 nM

CC(=O)[C@H]1CC[C@H]2[C@@H]3CC=C=CC(=O)CCC(=O)[C@H]3CC[C@]12C
Reversible / Irreversible inhibition (steroid 5α-reductase): Irreversible | Ki (steroid 5α-reductase): 1000 nM

CC(C)N(C(=O)[C@H]1CC[C@H]2[C@@H]3CCC4=CC([PH](=O)O)=CC[C@]4(C)[C@H]3CC[C@]12C)C(C)C [Example 7, 7β-N,N-Diisopropylcarboxamido-androst-2,4-diene-3-phosphinic acid]
Ki [1]: 20 nM

CC(C)N(C(=O)[C@H]1CC[C@H]2[C@@H]3CC=C4C=C(P(C)(=O)O)CC[C@]4(C)[C@H]3CC[C@]12C)C(C)C [Example 9, 17β-N,N-diisopropylcarboxamido-androst-3,5-diene-3-methylphosphinic acid]
Ki [1, 3]: 55 nM

CC(C)N(C(=O)[C@H]1CC[C@H]2[C@@H]3CC[C@H]4C=C([PH](=O)O)CC[C@]4(C)[C@H]3CC[C@]12C)C(C)C [Example 5, 17β-N,N-Diisopropylcarboxamido-5α-androst-3-ene-3-phosphinic acid]
Ki [1, 3]: 25 nM

C[C@]12CC[C@H]3[C@@H](CCC4=CC(=O)CC[C@@]43C)[C@@H]1CC[C@@H]2O [testosterone]
Km [2]: 4.5 µM

C[C@]12CC[C@H]3[C@@H](CCC4=CC(=O)CC[C@@]43C)[C@@H]1CC[C@@H]2C(=O)O
Reversible / Irreversible inhibition (steroid 5α-reductase): Reversible | Ki (steroid 5α-reductase): 1100 nM

CC(C)(C)NC(=O)[C@H]1CC[C@H]2[C@@H]3CC=C4C=C([PH](=O)O)CC[C@]4(C)[C@H]3CC[C@]12C [Example 2, 17β-N-t-Butylcarboxamide-androst-3,5-diene-3-phosphinic acid]
Ki [1, 3]: 35 nM

CC(C)N(C(=O)[C@H]1CC[C@H]2[C@@H]3CC=C4C=C([PH](=O)O)CC[C@]4(C)[C@H]3CC[C@]12C)C(C)C [Example 1, 17β-N,N-Diisopropylcarboxamido-androst-3,5-diene-3-phosphinic acid]
Ki [1, 3]: 7 nM

CC(CO)[C@H]1CC[C@H]2[C@@H]3CC[C@H]4C(=[N+]=[N-])C(=O)CC[C@]4(C)[C@H]3CC[C@]12C (some centres unmarked)
Reversible / Irreversible inhibition (steroid 5α-reductase): Irreversible | Ki (steroid 5α-reductase): 3.5 nM | time dependence of inhibition (in words) (steroid 5α-reductase; literature): potent, time-dependent inhibitor
